# ChEMBL document CHEMBL1143500, “Novel heterocyclic thyromimetics” (Bioorg Med Chem Lett, 2005)
# Target: T1, Thyroid hormone receptor (Homo sapiens, UniProt P10827+P10828)
# T1 sequence (P10827 whole entry): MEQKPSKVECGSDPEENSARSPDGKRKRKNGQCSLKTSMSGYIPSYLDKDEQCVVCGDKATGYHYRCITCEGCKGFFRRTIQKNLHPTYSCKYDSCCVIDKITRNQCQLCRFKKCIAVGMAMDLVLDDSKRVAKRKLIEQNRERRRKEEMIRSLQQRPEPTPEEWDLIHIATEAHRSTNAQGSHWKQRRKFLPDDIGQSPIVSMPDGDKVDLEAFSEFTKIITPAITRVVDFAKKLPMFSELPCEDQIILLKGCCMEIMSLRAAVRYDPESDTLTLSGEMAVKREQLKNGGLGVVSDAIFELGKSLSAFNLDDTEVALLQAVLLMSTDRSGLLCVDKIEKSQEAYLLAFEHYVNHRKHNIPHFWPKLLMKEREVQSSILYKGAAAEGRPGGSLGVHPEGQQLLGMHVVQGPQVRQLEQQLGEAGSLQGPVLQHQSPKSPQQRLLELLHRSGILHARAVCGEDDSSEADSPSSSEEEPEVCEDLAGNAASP
# T1 sequence (P10828 whole entry): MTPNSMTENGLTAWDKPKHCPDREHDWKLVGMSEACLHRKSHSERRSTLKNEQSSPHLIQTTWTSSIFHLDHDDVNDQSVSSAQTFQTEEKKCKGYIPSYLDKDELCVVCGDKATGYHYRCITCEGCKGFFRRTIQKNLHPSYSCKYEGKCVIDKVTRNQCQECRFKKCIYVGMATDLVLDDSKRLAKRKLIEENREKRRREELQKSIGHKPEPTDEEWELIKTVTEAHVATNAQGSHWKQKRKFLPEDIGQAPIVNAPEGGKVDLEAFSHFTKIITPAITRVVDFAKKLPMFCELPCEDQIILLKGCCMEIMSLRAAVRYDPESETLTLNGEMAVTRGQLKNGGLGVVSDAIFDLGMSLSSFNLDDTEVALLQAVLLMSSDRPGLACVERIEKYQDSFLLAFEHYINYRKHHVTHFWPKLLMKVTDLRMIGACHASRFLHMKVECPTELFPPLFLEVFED
# Test: (§1) Agonist activity towards thyroid hormone receptor expressed in human HepG2 cells
# Assay type: functional, cell-based
row,Structure (SMILES),EC50 [nM]
1,CCOC(=O)C(=O)Nc1cc(C)c(Oc2ccc3[nH]ccc3c2)c(C)c1,72
2,CCOC(=O)C(=O)Nc1cc(C(F)(F)F)c(Oc2ccc3[nH]cc(-c4ccc(F)cc4)c3c2)c(C(F)(F)F)c1,115
3,CCCCCc1n[nH]c2ccc(Oc3c(C)cc(NC(=O)C(=O)OCC)cc3C)cc12,8
4,CCOC(=O)C(=O)Nc1cc(C)c(Cc2ccc3[nH]cc(C(C)C)c3c2)c(C)c1,18
5,CCOC(=O)C(=O)Nc1cc(C(F)(F)F)c(Oc2ccc3[nH]cc(Cc4ccc(F)cc4)c3c2)c(C(F)(F)F)c1,11
6,CC(C)c1c[nH]c2ccc(Oc3c(C(F)(F)F)cc(CC(=O)O)cc3C(F)(F)F)cc12,0.5
7,CCOC(=O)C(=O)Nc1cc(Cl)c(Oc2ccc3[nH]ccc3c2)c(Cl)c1,15
8,CCOC(=O)C(=O)Nc1cc(C(F)(F)F)c(Oc2ccc3[nH]cc(Oc4ccc(F)cc4)c3c2)c(C(F)(F)F)c1,495

# The next lines start with the values.
row,EC50 [nM],Structure (SMILES)
1,4,COC(=O)C(=O)Nc1cc(Cl)c(Oc2ccc3[nH]cc(C(C)C)c3c2)c(Cl)c1
2,3.2,CC(C)c1c[nH]c2ccc(Oc3c(C(F)(F)F)cc(/C=C/C(=O)O)cc3C(F)(F)F)cc12
3,4,CCOC(=O)C(=O)Nc1cc(C)c(Oc2ccc3[nH]cc(C(C)C)c3c2)c(Cl)c1
4,8,CCOC(=O)CC(=O)Nc1cc(C)c(Oc2ccc3[nH]cc(C(C)C)c3c2)c(Cl)c1
5,15,CCOC(=O)C(=O)Nc1cc(C)c(Oc2ccc3[nH]cc(C)c3c2)c(C)c1
6,7.8,C=Cc1cc(NC(=O)C(=O)OCC)cc(C=C)c1Oc1ccc2[nH]cc(C(C)C)c2c1
7,1.2,CCOC(=O)C(=O)Nc1cc(Br)c(Oc2ccc3[nH]cc(C(C)C)c3c2)c(Br)c1
8,3,CCOC(=O)C(=O)Nc1cc(C(F)(F)F)c(Oc2ccc3[nH]cc(C(C)C)c3c2)c(C(F)(F)F)c1
9,23,CCOC(=O)C(=O)Nc1cc(C(F)(F)F)c(Oc2ccc3[nH]ccc3c2)c(C(F)(F)F)c1
10,2.6,CC(C)c1c[nH]c2ccc(Oc3c(C(F)(F)F)cc(CCC(=O)O)cc3C(F)(F)F)cc12
11,4,CCOC(=O)C(=O)Nc1cc(C)c(Oc2ccc3[nH]cc(C(C)C)c3c2)c(C)c1

# Target: T2, Thyroid hormone receptor (Homo sapiens) (UniProt P10827+P10828)
# Test: as §1
# Assay type: functional, cell-based
row,Concentration [nM],Structure (SMILES)
1,24,Cc1cc(OCC(=O)O)cc(C)c1Oc1ccc2[nH]cc(C(C)C)c2c1

# Target: T2, Thyroid hormone receptor (Homo sapiens)
# Test: Selectivity for THRalpha and THRbeta, ratio of EC50
# Assay type: protein-complex assay
row,Selectivity,Structure (SMILES)
1,10,CCOC(=O)CC(=O)Nc1cc(C)c(Oc2ccc3[nH]cc(C(C)C)c3c2)c(Cl)c1
2,10,CCOC(=O)C(=O)Nc1cc(C(F)(F)F)c(Oc2ccc3[nH]cc(C(C)C)c3c2)c(C(F)(F)F)c1
3,10,CCOC(=O)C(=O)Nc1cc(C)c(Oc2ccc3[nH]cc(C(C)C)c3c2)c(C)c1
